These results are taken from PMC8954204, “Synthesis and Evaluation of a ^18F-Labeled Ligand for PET Imaging of Colony-Stimulating Factor 1 Receptor” (Pharmaceuticals, 2022).

For orientation: IC50 means the midpoint of a concentration-inhibition curve.

Data set [1] concerns the target T1, CSF1R (Homo sapiens, UniProt P07333).
T1 construct: purchased Abcam
Put plainly: FRET-based Z'-LYTE kinase assay, binding affinity for CSF1R. Format: biochemical. As to conditions: FRET-based method, 1 mM ATP, mean ± S.D. of three measurements.
Method: The binding affinity of ligand 1 for CSF1R was measured using a fluorescence resonance energy transfer (FRET)-based method.
The final concentration of DMSO in the incubation mixture was 1%. The mixtures were incubated at room temperature for 1 h, followed by development reaction incubations at room temperature for 1 h. The fluorescence intensity of the incubation mixtures was measured (excitation, 400 nm; emission, 445 nm (donor) and 520 nm (acceptor)) using a Mithras^2 LB 943 monochromator multimode microplate reader (Berthold Technologies, Bad Wildbad, Germany), and the phosphorylation extent of the FRET-peptide was calculated. All experiments were performed in triplicate, and the IC50 values represent the average of three experimental determinations.

Data set [2] has as its system CSF1R. Also noted: method as in PMID 33757319. As to conditions: rhesus monkey; cited from earlier work.
The nature of data set [3]: octanol-water partition coefficient. It is filed as physicochemical. To be noted: 1-octanol/water; read-out: log P (octanol-water partition coefficient). The method, then:
Radioligand [^18F]1 was dissolved in 800 μL 1-octanol and mixed with 800 μL water, vortexed vigorously for 5 min, and centrifuged. Two layers were separated, and 100 μL aliquots of the 1-octanol and aqueous layers were removed and counted. Samples from the 1-octanol and aqueous layers were repartitioned until consistent values were obtained. The log P is expressed as the logarithm of the ratio of the counts per minute from octanol versus that of water.

Data set [4] can be described thus: ex vivo biodistribution in control, LPS and LPS+block mice. Also noted: species or system ICR mice. As to conditions: for blood uptake / brain uptake / femur uptake / kidney uptake / liver uptake / muscle uptake / spleen uptake: 45 min after i.v. injection, n = 4. The method, then: Ex vivo biodistribution studies were performed in three groups of mice (control, LPS, and LPS+block groups) at 45 min after intravenous (i.v.) injection of [^18F]1. […] Therefore, we performed the ex vivo biodistribution studies at 45 min after injection of [^18F]1 (Table 2). […] The relatively low level of inhibition can be attributed to the injection route and time of the blocking agent, i.p. administration 5 min prior to radioligand injection, which might not have allowed time for sufficient blocking. However, most of the PET radioligands currently developed for CSF1R imaging have low uptake or high non-specific binding in the brains of rodents and non-human primates. […] In this context, further blocking studies of [^18F]1 need to be conducted using the optimized injection time points of the blocking agents and using other potent CSF1R inhibitors as the blocking agents. […] In addition, these biodistribution data matched with the whole-body PET images of the control and LPS mice (Figure S2).
ICR male mice aged between 5 and 6 weeks were used in this study. The mice were provided drinking water and a normal diet ad libitum and were maintained under a 12 h light-dark cycle at 24 ± 1 °C with 50% humidity. The LPS-treated mouse model was prepared by injecting LPS (10 mg/kg in saline) i.p. into mice, and all experiments were carried out on the third day after LPS injection. Tissue radioactivity was counted using an automatic gamma counter (PerkinElmer, Waltham, MA, USA). MicroPET/CT images were acquired using an Inveon microPET/CT scanner (Siemens Medical Solutions, Knoxville, TN, USA).
ICR mice were divided into three groups: control, LPS, and LPS+block groups (n = 4 per group). […] Control and LPS-treated mice were injected i.p. with 100 μL of vehicle (10% DMSO-saline) at 5 min prior to the radioligand injection. At 45 min after radioligand injection, mice were sacrificed by cervical dislocation, and the blood and major tissues (brain, muscle, femur, liver, spleen, and kidney) were separated, weighed, and counted. Data are expressed as a percentage of injected dose per gram of tissue (% ID/g).

Data set [5] deals with T1, CSF1R. Put plainly: binding study of radioligand on CSF1R-coated well plates. The method, then:
A binding study of radioligand [^18F]1 for CSF1R was also performed using well plates coated with CSF1R.
A binding study of [^18F]1 for CSF1R was performed using detachable 96-well polystyrene plates (Nest Scientific, Rahway, NJ, USA). The plates were coated with 50 μL of CSF1R (200 μg/mL) in 0.05 M carbonate-bicarbonate buffer (pH 9.6). Non-coated plates were used for a control experiment. The CSF1R-coated and non-coated plates were incubated at 4 °C overnight and washed three times with PBS-T (20 mM PBS (pH 7.4) with 0.05% Tween-20). The unoccupied sites were blocked with blocking buffer (5% BSA in PBS-T) at room temperature for 1 h, and the plates were washed three times with PBS-T. [^18F]1 was dissolved in DMSO, and two-fold serial dilutions ranging from 1:100 to 1:400 were made from the radioligand solution. The diluted radioligand solutions were added to the CSF1R-coated and non-coated wells, which were then incubated at room temperature for 1 h. After incubation, the plates were washed three times with PBS-T. The wells were detached, and the radioligand bound to the wells was measured using a gamma counter and expressed as counts per minute (cpm). All experiments were performed in triplicate.

Data set [6] can be described thus: metabolism study, HPLC of brain homogenates and blood samples. As to conditions: control mice. It is filed as in vivo, ICR mice. The method, then:
In order to confirm that the brain uptake was due to the radioligand, we analyzed the brain homogenates and blood samples of control mice using HPLC. […] However, approximately 65% of the radioligand in the blood samples was converted to polar radiometabolites within 30 min after injection (Figure S3).
ICR mice (n = 1 per time point) were injected with [^18F]1 (18.5 MBq) via a tail vein. At 5 and 30 min after injection, mice were sacrificed, and samples of brain and blood were obtained. The samples were homogenized in 1 mL of acetonitrile and centrifuged. The supernatants were analyzed by HPLC using an analytical column eluted with a 45:55 mixture of 0.05 M ammonium formate (aq.) and acetonitrile at a flow rate of 1 mL/min. Eluates were monitored using a NaI(T1) radioactivity detector.

Data set [7] is described as follows: dynamic microPET/CT imaging, whole brain time activity curve. To be noted: control and LPS mouse, whole brain TAC. It is filed as in vivo, ICR mice. From the text: Dynamic PET/CT images of control and LPS mice were acquired, and the brain uptake was higher in the LPS mouse than in the control mouse (Figure 4A). […] In the control mouse, there was uptake in the decreasing order of the thalamus, striatum, hypothalamus, frontal cortex, and cerebellum (Figure 4C). In the 5.5-week-old mice used in our study, the frontal cortex and cerebellum had similar levels of uptake, although the cerebral cortex has markedly higher CSF1R expression than does the cerebellum in older adult mice. In the LPS mouse, a pattern similar to that of the control mouse was observed, with high uptake in the thalamus and striatum, and intermediate to low uptake in the hypothalamus, cerebellum, and frontal cortex (Figure 4C).
Dynamic PET scans of mice (one control and one LPS) were initiated simultaneously with tail vein injection of [^18F]1 (7.4 ± 0.1 MBq/mouse) and performed for 60 min (15 s × 8 frames, 30 s × 10 frames, 60 s × 3 frames, 240 s × 5 frames, 300 s × 6 frames, 32 frames in total); CT images followed for 20 min. […]
Analysis of dynamic PET data was performed using the PMOD 3.308 software (PMOD Technologies, Zurich, Switzerland). […] Several volumes of interest (VOIs) were determined on the mouse brain template: whole brain, striatum (mean value of the left and right striata), thalamus, hypothalamus, frontal cortex, and cerebellum. […]

Setting [8] is: LPS+block mice (CPPC 1 mg/kg i.p. 5 min before).

T1 sequence (P07333 20-972, species assumed): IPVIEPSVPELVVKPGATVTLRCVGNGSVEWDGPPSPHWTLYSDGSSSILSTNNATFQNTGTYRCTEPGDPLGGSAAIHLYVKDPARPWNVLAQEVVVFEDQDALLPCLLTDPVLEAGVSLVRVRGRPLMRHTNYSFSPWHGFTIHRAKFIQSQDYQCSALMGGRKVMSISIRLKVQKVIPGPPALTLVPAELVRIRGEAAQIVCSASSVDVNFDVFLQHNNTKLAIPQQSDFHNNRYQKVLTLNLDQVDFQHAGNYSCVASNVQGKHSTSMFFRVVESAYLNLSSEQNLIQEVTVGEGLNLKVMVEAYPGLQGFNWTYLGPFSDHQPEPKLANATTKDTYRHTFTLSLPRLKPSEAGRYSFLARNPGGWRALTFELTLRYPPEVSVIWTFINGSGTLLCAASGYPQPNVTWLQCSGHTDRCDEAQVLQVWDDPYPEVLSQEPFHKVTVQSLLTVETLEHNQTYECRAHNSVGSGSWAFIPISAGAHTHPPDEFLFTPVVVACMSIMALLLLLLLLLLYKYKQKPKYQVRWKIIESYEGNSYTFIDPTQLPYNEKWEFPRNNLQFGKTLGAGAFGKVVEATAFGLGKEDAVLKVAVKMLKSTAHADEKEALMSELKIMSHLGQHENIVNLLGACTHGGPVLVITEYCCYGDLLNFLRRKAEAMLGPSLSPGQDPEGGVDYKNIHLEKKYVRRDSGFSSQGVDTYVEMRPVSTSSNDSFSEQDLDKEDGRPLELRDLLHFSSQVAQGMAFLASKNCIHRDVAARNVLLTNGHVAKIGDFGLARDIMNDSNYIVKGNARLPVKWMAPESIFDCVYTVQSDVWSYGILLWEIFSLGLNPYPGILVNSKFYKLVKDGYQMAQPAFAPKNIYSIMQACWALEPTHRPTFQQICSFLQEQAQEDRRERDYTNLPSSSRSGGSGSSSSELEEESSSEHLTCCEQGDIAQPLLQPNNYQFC

Regarding `N#Cc1ccc(C(=O)Nc2ccc(N3CCN(CCF)CC3)cc2N2CCCCC2)o1` [Ligand 1, 5-Cyano-N-(4-(4-(2-fluoroethyl)piperazin-1-yl)-2-(piperidin-1-yl)phenyl)furan-2-carboxamide], the IC50 on CSF1R [1] came to 3.42 ± 0.33 nM.
As for `COc1ccc(COc2ccc(Cc3cnc(N)nc3N)cc2O[11CH3])cc1` [[^11C]GW2580, 5-(3-[^11C]methoxy-4-((4-methoxybenzyl)oxy)benzyl)pyrimidine-2,4-diamine], the “blocking of brain uptake with GW2580” value with CSF1R [2] is on record as 30%.
For the compound `N#Cc1ccc(C(=O)Nc2ccc(N3CCN(CC[18F])CC3)cc2N2CCCCC2)o1` [[^18F]1, 5-cyano-N-(4-(4-(2-[^18F]fluoroethyl)piperazin-1-yl)-2-(piperidin-1-yl)phenyl)furan-2-carboxamide], in data set [3], the logP stood at 2.3 ± 0.01. The “increase of brain uptake in LPS mice compared to control mice” value in data set [4] (45 min after radioligand injection) stood at 78%. Further, in data set [4] (LPS mice), the blood uptake came to 1.21 ± 0.11 % ID/g, the brain uptake is 2.14 ± 0.19 % ID/g, the femur uptake was determined as 1.95 ± 0.44 % ID/g and the kidney uptake is recorded as 2.23 ± 0.08 % ID/g. In data set [4] (LPS mice), this compound displayed a liver uptake of 6.04 ± 0.91 % ID/g, a muscle uptake of 1.03 ± 0.07 % ID/g and a spleen uptake of 2.47 ± 0.19 % ID/g. In data set [4] (setting [8]), this compound had a blood uptake of 1.30 ± 0.11 % ID/g, a brain uptake of 1.67 ± 0.16 % ID/g, a femur uptake of 2.11 ± 0.37 % ID/g and a kidney uptake of 2.04 ± 0.10 % ID/g. In addition, in data set [4] (setting [8]), the liver uptake stood at 3.15 ± 0.62 % ID/g, the muscle uptake amounted to 1.20 ± 0.19 % ID/g and the spleen uptake was determined as 1.45 ± 0.13 % ID/g. Besides, in data set [4] (control mice), the blood uptake is 0.93 ± 0.05 % ID/g, the brain uptake was determined as 1.20 ± 0.06 % ID/g, the femur uptake was determined as 1.80 ± 0.09 % ID/g and the kidney uptake stood at 1.97 ± 0.05 % ID/g. Besides, in data set [4] (control mice), the liver uptake is given as 6.87 ± 0.48 % ID/g, the muscle uptake turned out to be 0.96 ± 0.10 % ID/g and the spleen uptake came to 1.58 ± 0.20 % ID/g. The “radioligand bound to CSF1R-coated wells relative to non-coated wells (control)” value on CSF1R [5] (0.93 kBq radioligand) was found to be 3.31 fold. The “radioligand bound to CSF1R-coated wells relative to non-coated wells (control)” value on CSF1R [5] (1.85 kBq radioligand) amounted to 5.07 fold. Further, the “radioligand bound to CSF1R-coated wells relative to non-coated wells (control)” value on CSF1R [5] (3.7 kBq radioligand) is given as 7.14 fold. For the same compound, the “radioligand in blood converted to polar radiometabolites” value in data set [6] (blood samples, within 30 min after injection) is reported as “approximately 65%”. Moreover, the “state of radioligand in the brain” value in data set [6] (brain homogenates at 5 and 30 min after injection) is “intact”. Also, in data set [7], the “time of peak whole brain uptake after radioligand injection” value was at most 3 min.
